Results reported in ChEMBL document CHEMBL5608237, “Merging Natural Product Structures with Pharmaceutical Leads: Unnatural Enantiomers of Estranes as Glucocorticoid Receptor Modulators That Suppress TNF-α and IL-6 Release” (J Med Chem, 2024).

Assays:
[1] = Inhibition of IL-6 production in recombinant human IL-1 beta induced A549 cells assessed as maximum inhibition preincubated with compound for 1 hr followed by IL-1 beta addition and measured after 20 hrs by MSD assay relative to control; format: functional; conditions: time 21 hrs
[2] = Inhibition of TNF alpha production in recombinant human IL-1 beta induced A549 cells assessed as maximum inhibition preincubated with compound for 1 hr followed by IL-1 beta addition and measured after 20 hrs by MSD assay relative to control; format: functional; conditions: time 21 hrs
Androgen receptor = target: T1, Androgen receptor (Homo sapiens, UniProt P10275); test: Antagonist activity at human androgen receptor transfected in African green monkey CV-1 cells cotransfected with genetic response element-luciferase reporter gene assessed as inhibition of 5alpha-dihydro-11-keto testosterone induced response incubated for 22 hrs by luciferase detection reagent based assay; format: cell-based
T1 sequence (P10275 whole entry): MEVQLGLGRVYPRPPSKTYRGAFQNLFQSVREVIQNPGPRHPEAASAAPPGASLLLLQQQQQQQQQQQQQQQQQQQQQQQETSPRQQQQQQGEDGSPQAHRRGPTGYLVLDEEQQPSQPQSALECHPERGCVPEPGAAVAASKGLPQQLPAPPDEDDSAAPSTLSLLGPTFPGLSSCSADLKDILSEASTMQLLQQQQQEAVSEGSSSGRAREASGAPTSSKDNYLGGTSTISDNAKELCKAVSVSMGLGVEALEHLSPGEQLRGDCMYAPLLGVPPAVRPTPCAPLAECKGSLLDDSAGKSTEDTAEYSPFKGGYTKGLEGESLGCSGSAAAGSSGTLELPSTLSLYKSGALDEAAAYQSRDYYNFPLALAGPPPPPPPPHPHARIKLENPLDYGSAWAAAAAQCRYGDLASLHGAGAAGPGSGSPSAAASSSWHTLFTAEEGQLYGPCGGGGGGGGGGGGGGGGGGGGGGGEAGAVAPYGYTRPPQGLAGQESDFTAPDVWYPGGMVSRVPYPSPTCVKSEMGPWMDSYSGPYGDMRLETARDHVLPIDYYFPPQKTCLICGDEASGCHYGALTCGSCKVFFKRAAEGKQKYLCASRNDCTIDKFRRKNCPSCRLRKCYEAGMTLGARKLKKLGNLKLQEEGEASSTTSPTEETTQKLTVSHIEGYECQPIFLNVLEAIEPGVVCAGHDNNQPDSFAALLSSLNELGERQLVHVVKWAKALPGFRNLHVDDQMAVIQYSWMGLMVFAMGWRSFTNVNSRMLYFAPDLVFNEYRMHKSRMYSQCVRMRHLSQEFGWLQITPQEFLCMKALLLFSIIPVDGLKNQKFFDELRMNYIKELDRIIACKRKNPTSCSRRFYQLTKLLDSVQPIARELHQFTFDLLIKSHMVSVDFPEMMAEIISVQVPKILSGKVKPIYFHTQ

IC50 (Androgen receptor) [nM] | SMILES | inhibition (INH) [1] [%] | further results
 | CC#C[C@]1(O)CC[C@H]2[C@@H]3CCC4=CC(=O)CCC4=C3[C@@H](c3ccc(N(C)C)cc3)C[C@@]21C [MIFEPRISTONE] | <20 | 
 | Cc1ncccc1NC(=O)c1ccc2c(c1)C(=O)C[C@@H]1C[C@@](O)(c3ccccc3)[C@H](O)C[C@@]21Cc1ccccc1 | 60 | inhibition (INH) [2]: 60%
 | Cc1ncccc1NC(=O)c1ccc2c(c1)CC[C@@H]1C[C@@](O)(C(F)(F)F)CC[C@@]21Cc1ccccc1 [DAGROCORAT] | 60 | inhibition (INH) [2]: 60%
174 | Cc1ncccc1Nc1ccc2c(c1)CCC1=C3C[C@@H](O)C[C@]3(C)CC[C@]12Cc1ccccc1 |  | 
 | C[C@@H]1C[C@H]2[C@@H]3CCC4=CC(=O)C=C[C@]4(C)[C@@]3(F)[C@@H](O)C[C@]2(C)[C@@]1(O)C(=O)CO [DEXAMETHASONE] |  | Imax [2]: 100%; Imax [1]: 98%
401 | Cc1ncccc1Nc1ccc2c(c1)CCC1=C3C[C@@H](O)C[C@]3(C)CC[C@]12C |  | 
> 10000 | Cc1ncncc1Nc1ccc2c(c1)CCC1=C3C[C@@H](O)C[C@]3(C)CC[C@]12Cc1ccccc1 |  | 
> 10000 | Cc1ncncc1Nc1ccc2c(c1)CCC1=C3C[C@H](O)C[C@]3(C)CC[C@]12Cc1ccccc1 |  | 
